According to article PMC10928503 (Nature medicine, 2023):

Tests used:
[1] = tested on: FcTHL (Firmicutes CAG:176 thiolase); test: LC-MS/MS of N-acetyl 5-ASA formed, Michaelis-Menten; type: biochemical, Firmicutes bacterium CAG:176; details: 1 mM acetyl-CoA constant; 20 mM HEPES pH 7.5, 50 mM NaCl, 1 mM MgCl2, 1 mM TCEP, 5 uM enzyme, 37 °C
[2] = biological target: T1, FpGNAT (acyl-CoA N-acetyltransferase from F. prausnitzii) (Faecalibacterium duncaniae, UniProt C7H1G6); test: LC-MS/MS end-point acetylation assay; type: biochemical; details: 1 mM 5-ASA
T1 sequence (C7H1G6 1-201): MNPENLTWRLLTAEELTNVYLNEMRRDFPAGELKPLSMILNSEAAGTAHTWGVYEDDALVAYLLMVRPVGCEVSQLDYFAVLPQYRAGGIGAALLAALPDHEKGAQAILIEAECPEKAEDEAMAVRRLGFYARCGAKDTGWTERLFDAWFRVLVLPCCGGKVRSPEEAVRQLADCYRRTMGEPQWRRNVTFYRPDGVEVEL

[3] = biological target: Firmicutes CAG:176 thiolase (FcTHL) (Firmicutes CAG:176 (uncultured Firmicutes)); test: crystal structure

Nc1ccc(O)c(C(=O)O)c1 [5-ASA]
Km [1]: 1880 ± 460 µM
LC-MS/MS end-point acetylation assay ([2]; 1 mM acetyl-CoA, 50 uM enzyme, pH 7.5, 37 °C, 6 h): convert 5-ASA to N-acetyl-5-ASA in the presence of acetyl-CoA

CC(=O)SCCNC(=O)CCNC(=O)[C@H](O)C(C)(C)COP(=O)(O)OP(=O)(O)OC[C@H]1O[C@@H](n2cnc3c(N)ncnc32)[C@H](O)[C@@H]1OP(=O)(O)O [acetyl-CoA]
LC-MS/MS end-point acetylation assay ([2]; acetyl donor, same): convert 5-ASA to N-acetyl-5-ASA in the presence of acetyl-CoA

Firmicutes CAG:176 thiolase (FcTHL) (enzyme)
stoichiometry N [3]: 4
